Experimental data from PMC11494662, “Insight into the Course of the Ferrier Rearrangement Used to Obtain Untypical Diosgenyl Saponins” (The Journal of Organic Chemistry, 2024).
≈ marks a conversion by molar mass, not a printed value.

Key:
[1] = test system: human keratinocytes (HaCaT line); experiment: MTT cytotoxicity assay, HaCaT; assay type: cell-based; details: HaCaT normal cells, 48 h treatment; for IC50: Homo sapiens
Experimental: (§1) The MTT assay was performed to specify the cytotoxicity of 7–12 and 13–18 against prostate cancer cells (PC3 line), breast cancer cells (MCF7 line), and human keratinocytes (HaCaT line). The mentioned cell lines were assayed by exposing them for 48 h to a medium containing the studied compounds over a wide range of concentrations. The IC50 values (dose of the compound which caused a 50% reduction of cell viability) and the selectivity indexes (SI), which show the ratio of IC50 for normal cell line to IC50 for cancer cell line, are shown in Table S2. An MTT assay was performed to specify the cytotoxicity of the studied compounds against breast cancer cells (MCF-7 line, ATCC), prostate cancer cells (PC3 line, ATCC) and human keratinocytes (HaCaT line, CLS). The MCF-7 cell line was cultured in an RPMI 1640 medium (Gibco, Thermo Fisher Scientific), the PC3 cell line in a F-12K medium (Gibco, Thermo Fisher Scientific), and the HaCaT cell line in a high-glucose DMEM (Gibco, Thermo Fisher Scientific). Each medium was supplemented with 10% fetal bovine serum (Gibco, Thermo Fisher Scientific) and antibiotics (penicillin and streptomycin, Gibco, Thermo Fisher Scientific). Cells were seeded at a density of 4000 per well into 96-well plates and incubated at 37 °C in a 5% CO2 atmosphere. The cells were treated with studied compounds in a concentration range of 0.1–100 μg/mL or with a vehicle (1% DMSO) as a control and subsequently incubated for 48 h. Thereafter, the MTT salt solution (3-(4,5-dimethylthiazol-2-yl)-2,5-diphenyltetrazolium bromide, VWR) was added at a concentration of 4 mg/mL (25 μL per well), and the obtained product (formazan) after 3 h of incubation was dissolved in DMSO. An EnSpire microplate reader (PerkinElmer) was used to measure absorbance at 570 nm (the reference wavelength was 660 nm). The viability of the control cells was taken as 100%. Three independent experiments were conducted in triplicate. Statistical analysis of the results and estimation of IC50 values were performed using GraphPad Prism 7 software.

[2] = test system: prostate cancer cells (PC3 line); experiment: MTT cytotoxicity assay, PC3; assay type: cell-based, human; details: for IC50: Homo sapiens, PC-3; for IC50 / IC50 PC3: PC3 cells, 48 h treatment, MTT; for SI PC3 (selectivity index): ratio of IC50 for normal cell line (HaCaT) to IC50 for PC3, 48 h
Experimental: as §1

E. faecium ATCC 29212 = experiment: MIC, broth dilution method; assay type: cell-based; details: Enterococcus faecium, ATCC29212; MHB II, 18 h, 37 °C; read-out: Minimum inhibitory concentration E. faecium ATCC 29212
Experimental: (§2) MIC was determined with the dilution method in Mueller–Hinton II broth (MHB II) on 96-well polystyrene plates. The reference strains (Polish Academy of Sciences, Wroclaw, Poland) of Gram-positive bacteria (Enterococcus faecium ATCC 29,212, S. aureus ATCC 6538, S. aureus ATCC 43,300, S. aureus ATCC 12,598, S. aureus ATCC 25,923, S. aureus, ATCC 33,591, Staphylococcus epidermidis ATCC 14,990) and Gram-negative bacteria (Acinetobacter baumanii ATCC 23,506, Escherichia coli ATCC 25,922, Klebsiella pneumoniae ATCC 700,603, Pseudomonas aeruginosa ATCC 9027) were suspended in MHB II medium to initial inoculum of 10^5 cfu/mL. The microbes were exposed to graded concentrations of tested compounds (range 0.5–256 mg/L) for 18 h at 37 °C under aerobic conditions. The compounds were dissolved in DMSO and then diluted with PBS. […] MIC was taken as the lowest concentration at which no microbial growth was observed. The experiments were performed in triplicate.

S. aureus ATCC 12598 = experiment: MIC, broth dilution method; assay type: cell-based; details: Staphylococcus aureus, ATCC12598; MHB II, 18 h, 37 °C; read-out: Minimum inhibitory concentration S. aureus ATCC 12598
Experimental: as §2

S. aureus ATCC 33591 = experiment: MIC, broth dilution method; assay type: cell-based; details: Staphylococcus aureus, ATCC33591; MHB II, 18 h, 37 °C; read-out: Minimum inhibitory concentration S. aureus ATCC 33591
Experimental: as §2

S. aureus ATCC 6538 = experiment: MIC, broth dilution method; assay type: cell-based; details: Staphylococcus aureus, ATCC6538; MHB II, 18 h, 37 °C; read-out: Minimum inhibitory concentration S. aureus ATCC 6538
Experimental: as §2

S. aureus ATCC 25923 = experiment: MIC, broth dilution method; assay type: cell-based; details: Staphylococcus aureus, ATCC25923; MHB II, 18 h, 37 °C; read-out: Minimum inhibitory concentration S. aureus ATCC 25923
Experimental: as §2

[3] = test system: S. epidermidis ATCC 14990; experiment: MIC, broth dilution method; assay type: cell-based; details: Staphylococcus epidermidis, ATCC14990; MHB II, 18 h, 37 °C; read-out: Minimum inhibitory concentration S. epidermidis ATCC 14990
Experimental: as §2

S. aureus ATCC 43300 = experiment: MIC, broth dilution method; assay type: cell-based; details: Staphylococcus aureus, ATCC43300; MHB II, 18 h, 37 °C; read-out: Minimum inhibitory concentration S. aureus ATCC 43300
Experimental: as §2

[4] = test system: breast cancer cells (MCF-7 line); experiment: MTT cytotoxicity assay, MCF7; assay type: cell-based, human; details: for IC50: Homo sapiens; for IC50 / IC50 MCF7: MCF7 cells, 48 h treatment, MTT; for SI MCF7 (selectivity index): ratio of IC50 for normal cell line (HaCaT) to IC50 for MCF7, 48 h
Experimental: as §1

Structure (SMILES) | IC50 [1] | IC50 [2] | MIC (E. faecium ATCC 29212) | MIC (S. aureus ATCC 12598) | MIC (S. aureus ATCC 33591) | MIC (S. aureus ATCC 6538) | MIC (S. aureus ATCC 25923) | MIC [3] | MIC (S. aureus ATCC 43300) | IC50 [4] | SI PC3 (selectivity index) [2] | SI MCF7 (selectivity index) [4] | other results
C[C@@H]1CC[C@@]2(OC1)O[C@H]1C[C@H]3[C@@H]4CC=C5C[C@@H](O[C@H]6CC[C@@H](O)[C@H](C)O6)CC[C@]5(C)[C@H]4CC[C@]3(C)[C@H]1[C@@H]2C [15α, Diosgenyl 2,3,6-Trideoxy-α-L-erythro-hexopyranoside] | 56.9 µM | 26.5 µM | > 256 mg/L | > 256 mg/L | > 256 mg/L | 256 mg/L (≈ 484 µM) | 256 mg/L (≈ 484 µM) | > 256 mg/L | > 256 mg/L | 87.1 µM | – | – | –
C[C@@H]1CC[C@@]2(OC1)O[C@H]1C[C@H]3[C@@H]4CC=C5C[C@@H](O[C@@H]6C=C[C@H](O)[C@@H](CO)O6)CC[C@]5(C)[C@H]4CC[C@]3(C)[C@H]1[C@@H]2C [7α, Diosgenyl 2,3-Dideoxy-α-D-erythro-Hex-2-enopyranoside] | 20.2 µM | 16.8 µM | 256 mg/L (≈ 472 µM) | > 256 mg/L | > 256 mg/L | 256 mg/L (≈ 472 µM) | > 256 mg/L | 256 mg/L (≈ 472 µM) | > 256 mg/L | 56.1 µM | 1.20 | 0.36 | –
C[C@@H]1CC[C@@]2(OC1)O[C@H]1C[C@H]3[C@@H]4CC=C5C[C@@H](O[C@H]6C=C[C@H](O)CO6)CC[C@]5(C)[C@H]4CC[C@]3(C)[C@H]1[C@@H]2C [11β] | – | – | > 256 mg/L | > 256 mg/L | > 256 mg/L | > 256 mg/L | > 256 mg/L | > 256 mg/L | > 256 mg/L | – | – | – | IC50 HaCaT [1]: completely inactive; IC50 HaCaT ([1]; listed as 11): inactive; IC50 PC3 [2]: completely inactive; IC50 PC3 ([2]; listed as 11): inactive; IC50 MCF7 [4]: completely inactive; IC50 MCF7 ([4]; listed as 11): inactive
C[C@@H]1CC[C@@]2(OC1)O[C@H]1C[C@H]3[C@@H]4CC=C5C[C@@H](O[C@@H]6CC[C@H](O)[C@@H](CO)O6)CC[C@]5(C)[C@H]4CC[C@]3(C)[C@H]1[C@@H]2C [13α, Diosgenyl 2,3-Dideoxy-α-D-erythro-hexopyranoside] | 21.6 µM | 22.5 µM | > 256 mg/L | > 256 mg/L | > 256 mg/L | > 256 mg/L | > 256 mg/L | > 256 mg/L | > 256 mg/L | 38.6 µM | 0.96 | 0.56 | –
C[C@@H]1CC[C@@]2(OC1)O[C@H]1C[C@H]3[C@@H]4CC=C5C[C@@H](O[C@H]6C=C[C@H](O)[C@H](C)O6)CC[C@]5(C)[C@H]4CC[C@]3(C)[C@H]1[C@@H]2C [10α, Diosgenyl 2,3,6-Trideoxy-α-L-threo-hex-2-enopyranoside] | 50.9 µM | 49.7 µM | > 256 mg/L | > 256 mg/L | > 256 mg/L | > 256 mg/L | > 256 mg/L | > 256 mg/L | > 256 mg/L | 57.6 µM | 1.02 | 0.88 | –
C[C@@H]1CC[C@@]2(OC1)O[C@H]1C[C@H]3[C@@H]4CC=C5C[C@@H](O[C@H]6C=C[C@@H](O)[C@H](C)O6)CC[C@]5(C)[C@H]4CC[C@]3(C)[C@H]1[C@@H]2C [9α, Diosgenyl 2,3,6-Trideoxy-α-L-erythro-hex-2-enopyranoside] | 43.4 µM | 25.4 µM | > 256 mg/L | > 256 mg/L | > 256 mg/L | > 256 mg/L | > 256 mg/L | > 256 mg/L | > 256 mg/L | 183 µM | 1.71 | 0.24 | –
C[C@@H]1CC[C@@]2(OC1)O[C@H]1C[C@H]3[C@@H]4CC=C5C[C@@H](O[C@@H]6C=C[C@@H](O)[C@@H](CO)O6)CC[C@]5(C)[C@H]4CC[C@]3(C)[C@H]1[C@@H]2C [8α, Diosgenyl 2,3-Dideoxy-α-D-threo-hex-2-enopyranoside] | 22.2 µM | 21.4 µM | > 256 mg/L | > 256 mg/L | > 256 mg/L | > 256 mg/L | > 256 mg/L | > 256 mg/L | > 256 mg/L | 44.9 µM | 1.04 | 0.49 | –
C[C@@H]1CC[C@@]2(OC1)O[C@H]1C[C@H]3[C@@H]4CC=C5C[C@@H](O[C@@H]6CC[C@@H](O)CO6)CC[C@]5(C)[C@H]4CC[C@]3(C)[C@H]1[C@@H]2C [18β] | 59.9 µM | 28.9 µM | > 256 mg/L | > 256 mg/L | > 256 mg/L | > 256 mg/L | > 256 mg/L | > 256 mg/L | > 256 mg/L | 26.9 µM | ca. 2 | ca. 2 | SI PC3 (selectivity index) ([2]; listed as 18): 2.07; SI MCF7 (selectivity index) ([4]; listed as 18): 2.23
C[C@@H]1CC[C@@]2(OC1)O[C@H]1C[C@H]3[C@@H]4CC=C5C[C@@H](OC6CC[C@H](O)CO6)CC[C@]5(C)[C@H]4CC[C@]3(C)[C@H]1[C@@H]2C (stereo partly drawn) [17β] | 33.9 µM | 23.2 µM | > 256 mg/L | > 256 mg/L | > 256 mg/L | 256 mg/L (≈ 497 µM) | > 256 mg/L | > 256 mg/L | > 256 mg/L | 26.3 µM | 1.46 | 1.29 | –
C[C@@H]1CC[C@@]2(OC1)O[C@H]1C[C@H]3[C@@H]4CC=C5C[C@@H](O[C@@H]6C=C[C@@H](O)CO6)CC[C@]5(C)[C@H]4CC[C@]3(C)[C@H]1[C@@H]2C [12β] | 57.9 µM | 27.9 µM | > 256 mg/L | > 256 mg/L | > 256 mg/L | 256 mg/L (≈ 499 µM) | > 256 mg/L | > 256 mg/L | > 256 mg/L | 35.6 µM | – | ca. 2 | SI MCF7 (selectivity index) ([4]; listed as 12): 1.62
